For test [1], the system named is MCF7. Description: Cytotoxicity against human MCF7 cells assessed as reduction in cell growth incubated for 48 hrs by SRB assay. Conditions: MCF7, 48 h. Format: functional, cell-based.
Test [2] has as its system RAW264.7. In words: Anti-inflammatory activity in mouse RAW264.7 cells assessed as inhibition of LPS-induced TNFalpha production preincubated for 1 hr followed by LPS addition and measured after 24 hrs by ELISA. Format: functional. Also noted: scale not given: the % may be the effect or the level left. To be noted: time 25 hrs. On the technique in general: ELISA stands for enzyme-linked immunosorbent assay.

The test system of test [3] is A549. Description: Cytotoxicity against human A549 cells assessed as reduction in cell growth incubated for 48 hrs by SRB assay. Format: functional, cell-based. To be noted: A549, 48 h. A general note: Sulforhodamine B stains cellular protein and so reports cell mass.
Test [4] concerns DLD-1. Description: Cytotoxicity against human DLD-1 cells. Format: functional, cell-based.
Test [5] relates to A549. Description: Cytotoxicity against human A549 cells. Format: functional, cell-based.
The test system of test [6] is RAW264.7. In words: Antiinflammatory activity in LPS-induced mouse RAW264.7 cells assessed as inhibition of IL-6 production pretreated for 1 hr followed by LPS stimulation and measured after 3 hrs by ELISA. Format: functional. Also noted: scale not given: the % may be the effect or the level left. Conditions: time 4 hrs.
The subject of test [7] is MCF7. Description: Cytotoxicity against human MCF7 cells. Format: functional, cell-based.
Test [8] concerns FaDu. Description: Antiproliferative activity against human FaDu cells. Format: functional, cell-based.
Test [9] concerns DLD-1. Description: Cytotoxicity against human DLD-1 cells assessed as reduction in cell growth incubated for 48 hrs by SRB assay. Format: functional, cell-based. To be noted: DLD-1, 48 h.
In test [10] the test system is FaDu. In words: Cytotoxicity against human FaDu cells assessed as reduction in cell growth incubated for 48 hrs by SRB assay. Format: functional, cell-based.
Test [11] has as its system DU-145. In words: Antiproliferative activity against human DU-145 cells. Format: functional, cell-based.
Test [12] relates to DU-145. In words: Cytotoxicity against human DU-145 cells assessed as reduction in cell growth incubated for 48 hrs by SRB assay. To be noted: DU-145, 48 h. Format: functional, cell-based.
The test system of test [13] is BT-474. In words: Cytotoxicity against human BT-474 cells. Format: functional, cell-based.
Test [14] concerns DU-145. In words: Cytotoxicity against human DU-145 cells. Format: functional, cell-based.
Test [15] deals with MDA-MB-231. In words: Cytotoxicity against human MDA-MB-231 cells. Format: functional, cell-based.
Test [16] has as its system T98G. Description: Antiproliferative activity against human T98G cells assessed as inhibition of cell growth incubated for 72 hrs by celltiter-glo assay. Format: functional, cell-based. In general terms: Cellular ATP, detected with luciferase, serves as a proxy for viable cell number.
Test [17] has as its system U-937. In words: Antiproliferative activity against human U-937 cells assessed as inhibition of cell growth incubated for 72 hrs by cell-titer glo assay. To be noted: U-937, 72 h. Format: functional, cell-based.
Test [18] has as its system HeLa. Description: Antiproliferative activity against human HeLa cells assessed as reduction in cell growth after 48 hrs by MTT assay. Format: functional, cell-based.
Test [19] concerns Ca-Ski. In words: Antiproliferative activity against human Ca-Ski cells assessed as reduction in cell growth after 48 hrs by MTT assay. Format: functional, cell-based.
Test [20] has as its system HeLa. In words: Antiproliferative activity against human HeLa cells assessed as reduction in cell viability incubated for 24 hrs by MTT assay. Format: functional, cell-based.
In test [21] the test system is HepG2. In words: Antiproliferative activity against human HepG2 cells assessed as reduction in cell viability incubated for 24 hrs ny MTT assay. Format: functional, cell-based. To be noted: HepG2, 24 h.
Test [22] has as its system CCRF-CEM. Description: Cytotoxicity against human CCRF-CEM cells. Format: functional, cell-based.
Test [23] relates to Ca-Ski. Description: Cytotoxicity against human Ca-Ski cells. Format: functional, cell-based.
Test [24] deals with HeLa. Description: Cytotoxicity against human HeLa cells. Format: functional, cell-based.
The subject of test [25] is HepG2. In words: Antiproliferative activity against human HepG2 cells assessed as reduction in cell viability incubated for 48 hrs by MTT assay. Format: functional, cell-based. To be noted: HepG2, 48 h.
In test [26] the test system is U-937. Description: Cytotoxicity against human U-937 cells. Format: functional, cell-based.

Drawing on ChEMBL document CHEMBL6127100, “Plant based steroidal and triterpenoid sapogenins: Chemistry on diosgenin and biological aspects” (Eur J Med Chem, 2024), this text covers IC50 and Activity for eleven molecules.

pIC50: −log10 of the molar value.

For the molecule `C[C@H]1CO[C@@]2(O[C@H]3C[C@H]4[C@@H]5/C(=N/CCCCCCC(=O)O)C=C6C[C@@H](O)CC[C@]6(C)[C@H]5CC[C@]4(C)[C@H]3[C@@H]2C)/C(=N/O)C1`, the pIC50 (commonly the negative decadic logarithm of the IC50, by convention in mol/L) was 4.81 in test [1]; 4.77 in test [3]; 4.84 in [4]; 4.80 in [5]; 4.80 in [7]; 4.82 in test [8]. In addition, the pIC50 is 4.80 in test [9], 4.78 in test [10], 4.89 in test [11] and 4.78 in [12]. Further, the Activity is recorded as 41.72% in test [2] and 19.73% in test [6].
Turning to `C[C@H]1CO[C@@]2(O[C@H]3C[C@H]4[C@@H]5/C(=N/CCCCC(=O)O)C=C6C[C@@H](O)CC[C@]6(C)[C@H]5CC[C@]4(C)[C@H]3[C@@H]2C)/C(=N/O)C1`, the Activity in test [2] is listed as 47.7%; in [6], 23.3%.
Consider `COc1ccc(-c2cn(C3C[C@H]4[C@@H]5C[C@@H]6O[C@]7(CC[C@@H](C)CO7)[C@@H](C)[C@@H]6[C@@]5(C)CC[C@@H]4[C@@]4(C)CC[C@H](O)CC34O)nn2)cc1` (some centres undefined), for which the pIC50 in test [13] was 5.37; in [14] it was 4.70; in [15], 5.24; in test [16], 4.94; in test [17] it was 5.27.
As to `C[C@@H]1CC[C@@]2(OC1)O[C@H]1C[C@H]3[C@@H]4CC=C5C[C@@H](O)CC[C@]5(C)[C@H]4CC[C@]3(C)[C@H]1[C@@H]2C` [DISOGENIN], the pIC50 in test [18] was 4.50; in test [19], 4.10.
Turning to `C[C@H](CC[C@H]1O[C@H]2C[C@H]3[C@@H]4CC=C5C[C@@H](O[Si](C)(C)C(C)(C)C)CC[C@]5(C)[C@H]4CC[C@]3(C)[C@H]2[C@@H]1C)COC1=C(Cl)C(=O)c2ccccc2C1=O`, the figures for the pIC50 in test [20] and in test [21] were 4.76 and 5.24, respectively.
The corresponding values for `C[C@H](CC[C@H]1O[C@H]2C[C@H]3[C@@H]4CC=C5C[C@@H](O)CC[C@]5(C)[C@H]4CC[C@]3(C)[C@H]2[C@@H]1C)COC1=C(Cl)C(=O)c2ccccc2C1=O` are 4.85 and 5.91.
Turning to `COc1cccc(COc2ccc(-c3cn(C4C[C@H]5[C@@H]6C[C@@H]7O[C@]8(CC[C@@H](C)CO8)[C@@H](C)[C@@H]7[C@@]6(C)CC[C@@H]5[C@@]5(C)CC[C@H](O)CC45O)nn3)cc2)c1` (some centres undefined), the pIC50 in [22] was 5.24; in test [14], 4.98; in test [16], 5.12.
Regarding `Cc1ccc2c(c1)C(=O)C(Cl)=C(OC[C@H](C)CC[C@H]1O[C@H]3C[C@H]4[C@@H]5CC=C6C[C@@H](O[Si](C)(C)C(C)(C)C)CC[C@]6(C)[C@H]5CC[C@]4(C)[C@H]3[C@@H]1C)C2=O`, the results for the pIC50 in test [20] and in test [21] were 4.75 and 4.96, respectively.
`C[C@@H]1CC[C@@]2(OC1)O[C@H]1C[C@H]3[C@@H]4C/C(=N\O)C5=C/C(=N/O)CC[C@]5(C)[C@H]4CC[C@]3(C)[C@H]1[C@@H]2C`: the pIC50 in test [23] was 4.66; in [24], 4.72.
In the case of `C[C@@H]1CC[C@@]2(OC1)O[C@H]1C[C@H]3[C@@H]4CC=C5C[C@@H](OC(=O)[C@@H](N)CCCNC(=N)N)CC[C@]5(C)[C@H]4CC[C@]3(C)[C@H]1[C@@H]2C`, the pIC50 in test [25] was 4.72.
As for `C[C@@H]1CC[C@@]2(OC1)O[C@H]1C[C@H]3[C@@H]4CC(n5cc(-c6ccccn6)nn5)C5(O)C[C@@H](O)CC[C@]5(C)[C@H]4CC[C@]3(C)[C@H]1[C@@H]2C` (some centres undefined), the pIC50 in [26] is 4.82.
